Laboratory results reported in PMC10377513, “Goldilocks Dilemma: LPS Works Both as the Initial Target and a Barrier for the Antimicrobial Action of Cationic AMPs on E. coli” (Biomolecules, 2023).
Values after ≈ are worked out from the molar mass of the structure shown. Residues, ends and D or L forms follow the SMILES beside them.

Key:
[1] = tested on: S. aureus ATCC 9144; conditions: CLSI guidelines, MHBII; cited from earlier work
Experimental: (§1) Table 1 MIC and ζ potentials for the tested peptides against P. aeruginosa, S. aureus, and the three E. coli strains: ATCC 25922, LPS deficient—NR 698, and colistin-resistant CCUG 70662, which was tested after cultivation with (+) and without (−) 4 µg/mL of colistin, which caused a decrease of negative charge of the cell wall. MIC values for P. aeruginosa, S. aureus, and E. coli ATCC 25922 are rep | column: MIC (µg/mL) / S. aureus ATCC 9144

[2] = tested on: E. coli NR 698 live cells; test: Live cell NMR (1H signal attenuation on cell titration); assay type: binding; conditions: E. coli NR 698 cells titrated into 1 mg/mL peptide, Tris buffer pH 7.4, 298 K; KD in estimated lipid concentration, Shortridge fit; read-out: KD from live cell NMR
Experimental: (§2) NMR spectra were acquired on a Bruker Avance III HD spectrometer operating at 600 MHz for ^1H, equipped with an inverse TCl cryo probe. All NMR spectra were acquired at 298 K using 5 mm tubes using standard pulse programs.
(§3) E. coli strains ATCC 25922, CCUG 70662, and NR 698 were grown until OD600 ≈ 0.6–0.8 in standard Lysogeny Broth at 37 °C from overnight colonies on agar plates. This allowed bacterial cultures to reach an exponential state of growth. CCUG 70662 was cultivated with and without 4 µg/mL of colistin in both agar and broth to allow for modification of the lipid A part of LPS [33]. After that, cells were carefully centrifuged by 6000× g for 10 min, the supernatant was discarded, and the cell pellet was resuspended in 10 mM Tris buffer with 100 mM NaCl and pH 7.4. The process was repeated two more times to wash out broth components and leftover colistin. […] The part of samples was diluted to OD = 1 in Tris buffer, and zeta potential was measured on Malvern Zetasizer Nano (Malvern Ins., Malvern, UK). […]
(§4) For the live cell NMR, the same E. coli strains as for the MIC testing (see above) were used. […] To measure the initial AMP:bacterial cell binding, we titrated an increasing number of cells into a known and fixed concentration of AMP and monitored the signal attenuation of the peptide (Figure 4A,B). […]

[3] = tested on: E. coli ATCC 25922 live cells; test: as above; assay type: binding; conditions: E. coli ATCC 25922 cells titrated into 1 mg/mL peptide, Tris buffer pH 7.4, 298 K; KD in estimated lipid concentration, Shortridge fit; read-out: KD from live cell NMR
Experimental: as §2, §3, §4

[4] = tested on: E. coli ATCC 25922 lysate; test: NMR line shape analysis with sonicated cell lysate; assay type: binding; conditions: ATCC 25922 lysate versus live cells
Experimental: as §2, §3, §4

[5] = tested on: E. coli NR 698; conditions: LPS deficient strain; CLSI guidelines, MHBII
Experimental: (§5) The bacterial strains tested were E. coli ATCC 25922, E. coli […], and E. coli NR-698. The MIC assays followed the CLSI guidelines. Overnight cultures and MIC assays were performed in MHBII (212322, Becton, Dickson and Company, Sparks, MD, USA). In addition, E. coli […] was tested after cultivation with 4 µg/mL of colistin to induce alternation in surface charge.
(§6) The antimicrobial activity of the five cyclic cationic AMPs was determined against S. aureus, P. aeruginosa, and three strains of E. coli: ATCC 25922, LPS colistin-resistant strain CCUG 70662, and LPS deficient strain NR 698 (Table 1). CCUG 70662 was cultivated in two conditions, both in the absence (−) and in the presence (+) of colistin (4 µg/mL). Resistance development can be monitored by measuring changes in the ζ-potential, reflecting the overall charge of the bacteria. […] In the NR 698 strain, translocation of LPS from the periplasmic space to the outer leaflet is hindered.

[6] = tested on: E. coli CCUG 70662
Experimental: as §5, §6

[7] = tested on: E. coli ATCC 25922; conditions: CLSI guidelines, MHBII; cited from earlier work
Experimental: as §1, with “/ E. coli” for “/ S. aureus”, “ATCC 25922” for “ATCC 9144”

[8] = tested on: P. aeruginosa ATCC 27853; conditions: CLSI guidelines, MHBII; cited from earlier work
Experimental: as §1, with “/ P. aeruginosa” for “/ S. aureus”, “ATCC 27853” for “ATCC 9144”

[9] = SPR partitioning into immobilized liposomes; assay type: binding, E. coli; conditions: DMPC liposomes with 10% LPS versus DMPC and DMPC:PG
Experimental: The large unilamellar liposomes of DMPC and DMPC:PG (95:5) were prepared for the SPR experiment using standard methods. In brief, lipid mixtures were weighted from dry powder (Avanti, USA) and dissolved in 3:1 dichloromethane:methanol mixtures. The organic mixture was dried in a vacuum rotavapor to form a lipid film which was hydrated to 20 mM total concentration of lipids (for DMPC and DMPC:PG mixture) by adding 10 mM HEPES buffer pH 7.4 with 150 mM NaCl. For DMPC:LPS mixtures, dried LPS was dissolved in water and mixed with DMPC dissolved in dichloromethane. Isopropanol was added to the mixture until only one phase—dichloromethane:isopropanol:water was formed. Dry film was prepared and then hydrated using the same method as above to a concentration of 18 mM of DMPC and 10% (w/w) LPS in HEPES buffer. […]
The SPR experiments were performed at room temperature using the L1 chip and T200 Biacore instrument (GE Healthcare, Chicago, IL, USA). […] KD was obtained Using Equation (1) from a standard steady-state fit:(1) RU=RUMAX/1+KD/[P]+off, where RU is measured SPR response; RUMAX is RU response during saturation; [P] is peptide concentration; and off is offset of response. […]
SPR is emerging as the method of choice for measuring the partitioning of small compounds into lipid bilayers. […] From the estimated KD and the measured koff values, the association rate kon can be calculated (Equation (5)). […]

[10] = SPR, L1 chip, Biacore T200, room temperature, DMPC liposomes, 10 mM HEPES pH 7.4, 150 mM NaCl, steady-state fit; cited from earlier work
Description: Introducing 5% of a negatively charged component (DMPG) to the liposomes doubled the KP of all peptides except c(WKWKWK), where the increase was less substantial.

Structure (SMILES) | MIC S. aureus ATCC 9144 [1] | Kd [2] | Kd [3] | Increase in KD after sonication (lysate versus live cell ATCC 25922) [4] | MIC E. coli NR 698 [5] | MIC E. coli CCUG 70662+ [6] | MIC E. coli CCUG 70662− [6] | MIC E. coli ATCC 25922 [7] | MIC P. aeruginosa ATCC 27853 [8] | Increase in KP with DMPC:LPS compared to the DMPC and DMPC:PG constructs [9] | Partitioning constant KP [10]
N=C(N)NCCC[C@@H]1NC(=O)[C@H](Cc2c[nH]c3ccccc23)NC(=O)[C@H](CCCNC(=N)N)NC(=O)[C@H](Cc2c[nH]c3ccccc23)NC(=O)[C@H](CCCNC(=N)N)NC(=O)[C@H](Cc2c[nH]c3ccccc23)NC1=O [c(WRWRWR)] (HELM PEPTIDE1{W.R.W.R.W.R}$PEPTIDE1,PEPTIDE1,1:R1-6:R2$$$V2.0) | 32 µg/mL (≈ 31.2 µM) | > 500 µM | 50 to 200 µM | two-fold | 2 µg/mL (≈ 1.95 µM) | 32 µg/mL (≈ 31.2 µM) | 16 µg/mL (≈ 15.6 µM) | 32 µg/mL (≈ 31.2 µM) | 64 µg/mL (≈ 62.3 µM) | – | –
NCCCC[C@@H]1NC(=O)[C@H](Cc2c[nH]c3ccccc23)NC(=O)[C@H](CCCCN)NC(=O)[C@H](Cc2c[nH]c3ccccc23)NC(=O)[C@H](CCCCN)NC(=O)[C@H](Cc2c[nH]c3ccccc23)NC1=O [c(WKWKWK)] (HELM PEPTIDE1{W.K.W.K.W.K}$PEPTIDE1,PEPTIDE1,1:R1-6:R2$$$V2.0) | 128 µg/mL (≈ 136 µM) | – | – | – | 4 µg/mL (≈ 4.24 µM) | 64 µg/mL (≈ 67.9 µM) | 64 µg/mL (≈ 67.9 µM) | 64 µg/mL (≈ 67.9 µM) | >250 µg/mL | – | –
NCCCC[C@@H]1NC(=O)[C@H](CCCCN)NC(=O)[C@H](Cc2c[nH]c3ccccc23)NC(=O)[C@H](Cc2c[nH]c3ccccc23)NC(=O)[C@H](Cc2c[nH]c3ccccc23)NC(=O)[C@H](CCCCN)NC1=O [c(WWWKKK)] (HELM PEPTIDE1{W.W.W.K.K.K}$PEPTIDE1,PEPTIDE1,1:R1-6:R2$$$V2.0) | 32 µg/mL (≈ 33.9 µM) | – | – | – | 2 µg/mL (≈ 2.12 µM) | 4 µg/mL (≈ 4.24 µM) | 4 µg/mL (≈ 4.24 µM) | 8 µg/mL (≈ 8.48 µM) | 32 µg/mL (≈ 33.9 µM) | – | –
CC(C)C[C@@H]1NC(=O)[C@@H](CCCNC(=N)N)NC(=O)[C@H](CCCCN)NC(=O)[C@H](CC(N)=O)NC(=O)[C@@H](Cc2c[nH]c3ccccc23)NC(=O)[C@H](Cc2c[nH]c3ccccc23)NC1=O [c(LWwNKr)] (HELM PEPTIDE1{L.W.[dW].N.K.[dR]}$PEPTIDE1,PEPTIDE1,1:R1-6:R2$$$V2.0) | >250 µg/mL | – | – | – | 32 µg/mL (≈ 36.2 µM) | >250 µg/mL | >250 µg/mL | >250 µg/mL | >250 µg/mL | four-fold | 278
N=C(N)NCCC[C@@H]1NC(=O)[C@H](CCCNC(=N)N)NC(=O)[C@H](Cc2c[nH]c3ccccc23)NC(=O)[C@H](Cc2c[nH]c3ccccc23)NC(=O)[C@H](Cc2c[nH]c3ccccc23)NC(=O)[C@H](CCCNC(=N)N)NC1=O [c(WWWRRR)] (HELM PEPTIDE1{W.W.W.R.R.R}$PEPTIDE1,PEPTIDE1,1:R1-6:R2$$$V2.0) | 4 µg/mL (≈ 3.89 µM) | – | – | – | 4 µg/mL (≈ 3.89 µM) | 8 µg/mL (≈ 7.79 µM) | 8 µg/mL (≈ 7.79 µM) | 8 µg/mL (≈ 7.79 µM) | 16 µg/mL (≈ 15.6 µM) | – | 6649
